Experimental data: ChEMBL document CHEMBL4265914, “Discovery of selective urokinase plasminogen activator (uPA) inhibitors as a potential treatment for multiple sclerosis” (Bioorg Med Chem Lett, 2018)
pIC50: −log10 of the molar value. Activity calls are given as the source filed them. The calls are words filed in the database; no cut-off is given here.

Key:
[1] = target: Tissue-type plasminogen activator (Homo sapiens, UniProt P00750); test: Inhibition of human tPA
[2] = target: Urokinase-type plasminogen activator (Homo sapiens, UniProt P00749); test: Inhibition of human uPA
[3] = target: Plasminogen (Homo sapiens, UniProt P00747); test: Inhibition of human plasmin
Plasminogen (Homo sapiens, UniProt P00747), sequence (P00747 97-580 limits assumed): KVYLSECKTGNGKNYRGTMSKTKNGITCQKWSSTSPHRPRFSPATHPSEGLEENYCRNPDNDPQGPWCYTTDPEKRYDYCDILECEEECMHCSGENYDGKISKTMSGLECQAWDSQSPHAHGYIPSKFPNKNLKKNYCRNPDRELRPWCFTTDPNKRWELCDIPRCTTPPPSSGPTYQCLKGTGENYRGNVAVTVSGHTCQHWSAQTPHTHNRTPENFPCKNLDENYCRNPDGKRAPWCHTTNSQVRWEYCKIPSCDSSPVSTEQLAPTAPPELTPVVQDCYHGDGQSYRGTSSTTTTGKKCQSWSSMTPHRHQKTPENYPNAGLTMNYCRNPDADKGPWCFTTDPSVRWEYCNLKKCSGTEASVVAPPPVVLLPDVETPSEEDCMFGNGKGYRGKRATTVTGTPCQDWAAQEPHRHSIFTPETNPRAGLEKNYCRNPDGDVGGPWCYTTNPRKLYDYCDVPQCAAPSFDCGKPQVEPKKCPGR
Plasminogen (Homo sapiens, UniProt P00747), sequence (P00747 581-810 limits assumed): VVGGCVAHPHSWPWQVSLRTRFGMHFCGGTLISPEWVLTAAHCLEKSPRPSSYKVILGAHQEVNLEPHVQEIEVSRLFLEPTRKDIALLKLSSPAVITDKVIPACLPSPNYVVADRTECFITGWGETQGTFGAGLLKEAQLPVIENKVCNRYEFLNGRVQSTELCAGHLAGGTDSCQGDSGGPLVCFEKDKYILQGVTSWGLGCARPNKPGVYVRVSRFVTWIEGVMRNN

[4] = system: Mus musculus; test: Prevention of multiple sclerosis development in acute SJL mouse EAE model at 25 to 50 mg/kg, po bid; format: functional, organism-based
[5] = target: Urokinase-type plasminogen activator (Mus musculus, UniProt P06869); test: Inhibition of mouse uPA
Urokinase-type plasminogen activator (Mus musculus, UniProt P06869), sequence (P06869 21-178 limits assumed): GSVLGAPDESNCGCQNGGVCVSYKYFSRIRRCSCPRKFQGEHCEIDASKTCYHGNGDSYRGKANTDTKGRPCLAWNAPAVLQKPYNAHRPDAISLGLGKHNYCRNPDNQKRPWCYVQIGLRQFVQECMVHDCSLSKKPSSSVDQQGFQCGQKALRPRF
Urokinase-type plasminogen activator (Mus musculus, UniProt P06869), sequence (P06869 180-433 limits assumed): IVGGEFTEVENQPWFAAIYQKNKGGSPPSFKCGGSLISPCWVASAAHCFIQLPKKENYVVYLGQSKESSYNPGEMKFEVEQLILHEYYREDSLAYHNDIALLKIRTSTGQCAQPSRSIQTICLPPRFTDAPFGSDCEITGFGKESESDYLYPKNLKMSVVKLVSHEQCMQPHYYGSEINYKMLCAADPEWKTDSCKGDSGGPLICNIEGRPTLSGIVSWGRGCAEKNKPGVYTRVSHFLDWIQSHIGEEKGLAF

[6] = system: Rattus norvegicus; test: Total AUC in rat at 2 mg/kg, po; format: ADME, organism-based; parameters: dose 2 mg/kg, route oral, time AUCmax; settings: in vivo
[7] = system: Mus musculus; test: Prevention of multiple sclerosis development in chronic SJL mouse EAE model at 10 to 25 mg/kg, po bid; format: functional, organism-based
[8] = target: Plasminogen (Mus musculus, UniProt P20918); test: Inhibition of mouse plasmin
Plasminogen (Mus musculus, UniProt P20918), sequence (P20918 98-581 limits assumed): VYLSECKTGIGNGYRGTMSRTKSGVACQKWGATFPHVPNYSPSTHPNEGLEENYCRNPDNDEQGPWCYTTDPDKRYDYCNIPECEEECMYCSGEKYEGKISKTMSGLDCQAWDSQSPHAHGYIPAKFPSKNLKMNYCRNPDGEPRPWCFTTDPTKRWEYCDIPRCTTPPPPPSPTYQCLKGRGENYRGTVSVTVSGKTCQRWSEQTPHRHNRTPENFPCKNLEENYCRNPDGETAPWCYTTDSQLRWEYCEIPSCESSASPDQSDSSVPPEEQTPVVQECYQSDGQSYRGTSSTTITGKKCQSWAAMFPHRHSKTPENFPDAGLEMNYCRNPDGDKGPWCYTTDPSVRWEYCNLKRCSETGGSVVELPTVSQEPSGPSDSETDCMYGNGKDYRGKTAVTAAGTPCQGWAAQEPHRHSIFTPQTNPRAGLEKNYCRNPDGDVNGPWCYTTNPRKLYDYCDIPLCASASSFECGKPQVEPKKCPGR
Plasminogen (Mus musculus, UniProt P20918), sequence (P20918 582-812 limits assumed): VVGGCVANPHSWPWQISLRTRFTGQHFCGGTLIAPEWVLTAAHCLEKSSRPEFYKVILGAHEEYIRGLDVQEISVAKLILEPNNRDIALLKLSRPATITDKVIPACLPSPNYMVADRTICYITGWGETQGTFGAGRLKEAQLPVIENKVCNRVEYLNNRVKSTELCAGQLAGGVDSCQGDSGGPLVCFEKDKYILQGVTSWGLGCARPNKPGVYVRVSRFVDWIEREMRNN

[9] = target: Tissue-type plasminogen activator (Mus musculus, UniProt P11214); test: Inhibition of mouse tPA
Tissue-type plasminogen activator (Mus musculus, UniProt P11214), sequence (P11214 whole entry): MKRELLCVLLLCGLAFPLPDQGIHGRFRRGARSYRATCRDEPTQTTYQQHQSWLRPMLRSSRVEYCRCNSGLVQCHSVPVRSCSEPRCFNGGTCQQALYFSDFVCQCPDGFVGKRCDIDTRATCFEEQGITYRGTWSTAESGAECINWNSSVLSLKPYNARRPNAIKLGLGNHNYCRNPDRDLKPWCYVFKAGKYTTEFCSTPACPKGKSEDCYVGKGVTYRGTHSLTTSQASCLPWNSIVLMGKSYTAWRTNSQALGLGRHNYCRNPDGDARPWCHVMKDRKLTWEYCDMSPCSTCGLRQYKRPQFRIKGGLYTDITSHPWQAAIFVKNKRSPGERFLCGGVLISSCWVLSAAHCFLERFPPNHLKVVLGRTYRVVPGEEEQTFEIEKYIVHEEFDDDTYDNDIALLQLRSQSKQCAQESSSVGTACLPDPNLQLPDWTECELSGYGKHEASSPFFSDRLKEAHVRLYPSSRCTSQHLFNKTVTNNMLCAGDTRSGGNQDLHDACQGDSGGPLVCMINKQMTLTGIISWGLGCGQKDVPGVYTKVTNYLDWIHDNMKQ

[10] = system: Mus musculus; test: Prevention of multiple sclerosis development in chronic SJL mouse EAE model at 50 mg/kg, po bid; format: functional, organism-based
[11] = Clearance in rat at 2 mg/kg, po; format: ADME, organism-based; settings: in vivo
[12] = Half life in rat at 2 mg/kg, po; format: ADME, organism-based; settings: in vivo
[13] = system: Rattus norvegicus; test: Volume of distribution in rat at 2 mg/kg, po; format: ADME, organism-based; settings: in vivo
[14] = Oral bioavailability in rat at 2 mg/kg; format: ADME, organism-based; settings: in vivo
[15] = Cmax in rat at 2 mg/kg, po; format: ADME, organism-based; parameters: dose 2 mg/kg, route oral; settings: in vivo

Tissue-type plasminogen activator (Homo sapiens, UniProt P00750), sequence (P00750 whole entry): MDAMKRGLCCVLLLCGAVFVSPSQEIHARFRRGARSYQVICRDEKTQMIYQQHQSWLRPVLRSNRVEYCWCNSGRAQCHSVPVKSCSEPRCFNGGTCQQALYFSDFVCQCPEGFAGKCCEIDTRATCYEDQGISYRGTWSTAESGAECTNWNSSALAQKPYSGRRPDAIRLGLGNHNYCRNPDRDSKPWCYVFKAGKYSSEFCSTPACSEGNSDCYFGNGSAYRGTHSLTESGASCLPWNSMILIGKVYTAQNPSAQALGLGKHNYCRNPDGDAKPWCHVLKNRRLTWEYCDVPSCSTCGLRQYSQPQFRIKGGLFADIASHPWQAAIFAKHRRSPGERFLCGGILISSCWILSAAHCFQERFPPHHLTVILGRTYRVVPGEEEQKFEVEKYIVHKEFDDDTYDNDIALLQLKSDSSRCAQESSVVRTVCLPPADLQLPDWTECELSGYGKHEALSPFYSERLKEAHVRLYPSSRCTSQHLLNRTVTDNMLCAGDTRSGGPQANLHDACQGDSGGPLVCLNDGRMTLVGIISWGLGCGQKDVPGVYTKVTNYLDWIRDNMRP

Compound	pIC50 [1]	pIC50 [2]	pIC50 [3]	also measured
Cc1cc(Oc2nc(O[C@@H](C(=O)O)C(C)(C)C)c(F)cc2F)cc(-c2cccc(CN)c2)c1	6.33	7.29	5.72	
C[C@@H](Oc1nc(Oc2cccc(-c3cccc(CN)c3)c2)c(F)cc1F)C(=O)O		6.44	5.29	
CC[C@@H](Oc1nc(Oc2cc(C)cc(-c3cccc(CN)c3)c2)c(F)cc1F)C(=O)O	5.80	7.10	5.88	Activity [4]: Active; pIC50 [5]: 6.39; AUC [6]: 13200 ng·h/mL; Activity [7]: inactive; pIC50 [8]: 5.80; pIC50 [9]: 6.04; Activity [10]: Active; CL/F [11]: 4 mL/min/kg; half-life [12]: 2.2 h; Vd [13]: 0.6 L/kg; bioavailability [14]: 30%
CC[C@@H](Oc1nc(Oc2cccc(-c3cccc(CN)c3)c2)c(F)cc1F)C(=O)O	5.80	6.63	5.73	AUC [6]: 2200 ng·h/mL; CL/F [11]: 8.4 mL/min/kg; half-life [12]: 2.8 h; Vd [13]: 0.76 L/kg; Cmax [15]: 640 ng/mL; bioavailability [14]: 55%
CC[C@H](Oc1nc(Oc2cccc(-c3cccc(CN)c3)c2)c(F)cc1F)C(=O)O	< 4.52	5.14	< 4.52	
NCc1cccc(-c2cccc(Oc3nc(OCC(=O)O)c(F)cc3F)c2)c1		5.48		

Further molecules by rising pIC50 [2], results first:

pIC50 [1]	pIC50 [2]	pIC50 [3]	Compound	also measured
5.84	7.08	5.26	CC(C)(C)[C@@H](Oc1nc(Oc2cccc(-c3cccc(CN)c3)c2)c(F)cc1F)C(=O)O	
5.24	7.47	5.27	CC(C)(C)[C@@H](Oc1nc(Oc2cc(C#N)cc(-c3cccc(CN)c3)c2)c(F)cc1F)C(=O)O	
5.73	7.64	5.48	COc1cc(Oc2nc(O[C@@H](C(=O)O)C(C)(C)C)c(F)cc2F)cc(-c2cccc(CN)c2)c1	
